Reference: the supplement of paper PMC10307832

Assays:
Test in all cases: relative viability (nuclei count vs DMSO), 5 days (fraction); higher = more cells survive
NCI-H1395 = test system: NCI-H1395
Outline: (§1)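 Relative viability divides the nuclei count in treated wells by that in vehicle wells. Lung cancer cell lines were seeded in 1536-well plates, dosed by pin tool the next day, and fixed and stained after 5 days in one step with final 0.05% Triton X-100, 1% formaldehyde and 1 ug/ml Hoechst. Dosing was a single drug or a fixed anchor-drug dose plus five library-drug doses (not always all listed) in √10 steps, and values are medians of duplicate plates imaged at 4×.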

HCC-827 = test system: HCC-827
Outline: as §1

SK-MES-1 = test system: SK-MES-1
Outline: as §1

NCI-H1355 = test system: NCI-H1355
Outline: as §1

LCLC-103H = test system: LCLC-103H
Outline: as §1

H3255 = test system: H3255
Outline: as §1

NCI-H2087 = test system: NCI-H2087
Outline: as §1

UMC-11 = test system: UMC-11
Outline: as §1

NCI-H1993 = test system: NCI-H1993
Outline: as §1

NCI-H520 = test system: NCI-H520
Outline: as §1

NCI-H2405 = test system: NCI-H2405
Outline: as §1

EMC-BAC-2 = test system: EMC-BAC-2
Outline: as §1

NCI-H2085 = test system: NCI-H2085
Outline: as §1

ChaGo-K-1 = test system: ChaGo-K-1
Outline: as §1

EPLC-272H = test system: EPLC-272H
Outline: as §1

NCI-H23 = test system: NCI-H23
Outline: as §1

NCI-H322M = test system: NCI-H322M
Outline: as §1

NCI-H650 = test system: NCI-H650
Outline: as §1

LCLC-97TM1 = test system: LCLC-97TM1
Outline: as §1

NCI-H1944 = test system: NCI-H1944
Outline: as §1

NCI-H1651 = test system: NCI-H1651
Outline: as §1

NCI-H1793 = test system: NCI-H1793
Outline: as §1

HCC-44 = test system: HCC-44
Outline: as §1

Which relative viability (NCI-H1395; first compound 0.03162 µM) does the source give for `CC(C)Oc1cc(Nc2nc(N[C@@H](C)c3ccc(F)cn3)ncc2Cl)n[nH]1` [AZ23] + Cc1cc(Nc2cc(N3CCN(C)CC3)nc(Sc3ccc(NC(=O)C4CC4)cc3)n2)n[nH]1 [Tozasertib] (partner 0.1 µM) here?
Its relative viability is 0.812.

And the relative viability (NCI-H1395; first compound 0.3162 µM)?
The relative viability was 0.815.

What about the relative viability (HCC-827; first compound 0.01 µM) of the same molecule?
Its relative viability is 0.448.

What about the relative viability (HCC-827; first compound 0.03162 µM) of the same molecule?
The relative viability was 0.445.

What about the relative viability (HCC-827; first compound 0.3162 µM) of the same molecule?
Its relative viability is 0.415.

What about the relative viability (SK-MES-1; first compound 0.03162 µM) of the same molecule?
Its relative viability is 1.1.

What about the relative viability (SK-MES-1; first compound 0.3162 µM) of the same molecule?
The relative viability was 0.942.

What about the relative viability (NCI-H1355; first compound 0.01 µM) of the same molecule?
Its relative viability is 0.507.

What about the relative viability (NCI-H1355; first compound 0.03162 µM) of the same molecule?
Its relative viability is 0.609.

And the relative viability (NCI-H1355; first compound 0.3162 µM)?
Its relative viability is 0.597.

And the relative viability (LCLC-103H; first compound 0.01 µM)?
Its relative viability is 0.467.

And the relative viability (LCLC-103H; first compound 0.03162 µM)?
The relative viability was 0.491.

And the relative viability (LCLC-103H; first compound 0.3162 µM)?
Its relative viability is 0.559.

What about the relative viability (H3255; first compound 0.01 µM) of the same molecule?
The relative viability was 0.662.

What about the relative viability (H3255; first compound 0.03162 µM) of the same molecule?
Its relative viability is 0.821.

What about the relative viability (H3255; first compound 0.3162 µM) of the same molecule?
Its relative viability is 0.675.

And the relative viability (NCI-H2087; first compound 0.01 µM)?
Its relative viability is 0.271.

What about the relative viability (NCI-H2087; first compound 0.03162 µM) of the same molecule?
The relative viability was 0.245.

And the relative viability (NCI-H2087; first compound 0.3162 µM)?
Its relative viability is 0.245.

What about the relative viability (UMC-11; first compound 0.01 µM) of the same molecule?
Its relative viability is 0.181.

What about the relative viability (UMC-11; first compound 0.03162 µM) of the same molecule?
The relative viability was 0.197.

What about the relative viability (UMC-11; first compound 0.3162 µM) of the same molecule?
The relative viability was 0.19.

What about the relative viability (NCI-H1993; first compound 0.01 µM) of the same molecule?
Its relative viability is 0.593.

What about the relative viability (NCI-H1993; first compound 0.03162 µM) of the same molecule?
The relative viability was 0.604.

And the relative viability (NCI-H1993; first compound 0.3162 µM)?
Its relative viability is 0.548.

What about the relative viability (NCI-H520; first compound 0.01 µM) of the same molecule?
Its relative viability is 0.455.

And the relative viability (NCI-H520; first compound 0.03162 µM)?
Its relative viability is 0.485.

What about the relative viability (NCI-H520; first compound 0.3162 µM) of the same molecule?
The relative viability was 0.475.

And the relative viability (NCI-H2405; first compound 0.01 µM)?
Its relative viability is 0.709.

And the relative viability (NCI-H2405; first compound 0.03162 µM)?
The relative viability was 0.774.

And the relative viability (NCI-H2405; first compound 0.3162 µM)?
The relative viability was 0.808.

What about the relative viability (EMC-BAC-2; first compound 0.01 µM) of the same molecule?
Its relative viability is 0.262.

What about the relative viability (EMC-BAC-2; first compound 0.03162 µM) of the same molecule?
The relative viability was 0.28.

And the relative viability (EMC-BAC-2; first compound 0.3162 µM)?
The relative viability was 0.296.

And the relative viability (NCI-H2085; first compound 0.01 µM)?
The relative viability was 0.799.

What about the relative viability (NCI-H2085; first compound 0.03162 µM) of the same molecule?
Its relative viability is 0.855.

And the relative viability (NCI-H2085; first compound 0.3162 µM)?
The relative viability was 0.803.

And the relative viability (ChaGo-K-1; first compound 0.01 µM)?
Its relative viability is 0.234.

And the relative viability (ChaGo-K-1; first compound 0.03162 µM)?
The relative viability was 0.234.

And the relative viability (ChaGo-K-1; first compound 0.3162 µM)?
The relative viability was 0.235.

What about the relative viability (EPLC-272H; first compound 0.01 µM) of the same molecule?
Its relative viability is 0.384.

What about the relative viability (EPLC-272H; first compound 0.03162 µM) of the same molecule?
Its relative viability is 0.263.

What about the relative viability (EPLC-272H; first compound 0.3162 µM) of the same molecule?
The relative viability was 0.246.

And the relative viability (NCI-H23; first compound 0.03162 µM)?
The relative viability was 0.558.

And the relative viability (NCI-H23; first compound 0.3162 µM)?
The relative viability was 0.363.

And the relative viability (NCI-H322M; first compound 0.03162 µM)?
The relative viability was 0.501.

And the relative viability (NCI-H322M; first compound 0.3162 µM)?
Its relative viability is 0.434.

And the relative viability (NCI-H650; first compound 0.01 µM)?
The relative viability was 0.728.

What about the relative viability (NCI-H650; first compound 0.03162 µM) of the same molecule?
Its relative viability is 0.75.

And the relative viability (NCI-H650; first compound 0.3162 µM)?
The relative viability was 0.802.

What about the relative viability (LCLC-97TM1; first compound 0.01 µM) of the same molecule?
Its relative viability is 0.186.

What about the relative viability (LCLC-97TM1; first compound 0.03162 µM) of the same molecule?
Its relative viability is 0.266.

And the relative viability (LCLC-97TM1; first compound 0.3162 µM)?
Its relative viability is 0.194.

And the relative viability (NCI-H1944; first compound 0.01 µM)?
The relative viability was 0.279.

What about the relative viability (NCI-H1944; first compound 0.03162 µM) of the same molecule?
Its relative viability is 0.247.

What about the relative viability (NCI-H1944; first compound 0.3162 µM) of the same molecule?
The relative viability was 0.243.

What about the relative viability (NCI-H1651; first compound 0.03162 µM) of the same molecule?
Its relative viability is 0.885.

And the relative viability (NCI-H1651; first compound 0.3162 µM)?
Its relative viability is 0.71.

What about the relative viability (NCI-H1793; first compound 0.01 µM) of the same molecule?
Its relative viability is 0.317.

What about the relative viability (NCI-H1793; first compound 0.03162 µM) of the same molecule?
Its relative viability is 0.373.

And the relative viability (NCI-H1793; first compound 0.3162 µM)?
The relative viability was 0.339.

And the relative viability (HCC-44; first compound 0.01 µM)?
The relative viability was 0.991.

What about the relative viability (HCC-44; first compound 0.03162 µM) of the same molecule?
Its relative viability is 0.841.

And the relative viability (HCC-44; first compound 0.3162 µM)?
The relative viability was 1.15.
